Source: ChEMBL document CHEMBL6153174, “Design and Synthesis of Novel Deazapurine DNMT 1 Inhibitors with In Vivo Efficacy in DLBCL” (J Med Chem, 2025)

What was measured:
[1] = Cmax in Sprague-Dawley rat at 10 mg/kg, iv measured upto 24 hrs by LC/MS/MS analysis; type: ADME, organism-based; conditions: in vivo
[2] = Terminal elimination half life in Sprague-Dawley rat at 10 mg/kg, iv measured upto 24 hrs by LC/MS/MS analysis; type: ADME, organism-based; conditions: in vivo, read-out: beta t1/2 (converted)
[3] = Terminal elimination half life in Sprague-Dawley rat at 10 mg/kg, po measured upto 24 hrs by LC/MS/MS analysis; type: ADME, organism-based; conditions: in vivo, read-out: beta t1/2 (converted)
[4] = system: U-937; assay: Antiproliferative activity against human U-937 cells assessed as inhibition of cell viability measured after 72 hrs by MTT assay; type: functional, cell-based; conditions: U-937, 72 h
[5] = target: T1, DNA (cytosine-5)-methyltransferase 3B (Homo sapiens, UniProt Q9UBC3); assay: Inhibition of DNMT3B (unknown origin) preincubated for 15 mins followed by substrate and [3H-SAM] addition and measured after 60 mins by microbeta analysis
[6] = target: T2, DNA (cytosine-5)-methyltransferase 3A (Homo sapiens, UniProt Q9Y6K1); assay: Inhibition of DNMT3A (unknown origin) preincubated for 15 mins followed by substrate and [3H-SAM] addition and measured after 60 mins by microbeta analysis
[7] = target: T3, Histone-lysine N-methyltransferase EHMT2 (Homo sapiens) (UniProt Q96KQ7); assay: Inhibition of G9a (unknown origin) at 5 uM preincubated for 15 mins followed by substrate and [3H-SAM] addition and measured after 60 mins by microbeta analysis relative to control; conditions: time 75.0 min
T3 sequence (whole entry): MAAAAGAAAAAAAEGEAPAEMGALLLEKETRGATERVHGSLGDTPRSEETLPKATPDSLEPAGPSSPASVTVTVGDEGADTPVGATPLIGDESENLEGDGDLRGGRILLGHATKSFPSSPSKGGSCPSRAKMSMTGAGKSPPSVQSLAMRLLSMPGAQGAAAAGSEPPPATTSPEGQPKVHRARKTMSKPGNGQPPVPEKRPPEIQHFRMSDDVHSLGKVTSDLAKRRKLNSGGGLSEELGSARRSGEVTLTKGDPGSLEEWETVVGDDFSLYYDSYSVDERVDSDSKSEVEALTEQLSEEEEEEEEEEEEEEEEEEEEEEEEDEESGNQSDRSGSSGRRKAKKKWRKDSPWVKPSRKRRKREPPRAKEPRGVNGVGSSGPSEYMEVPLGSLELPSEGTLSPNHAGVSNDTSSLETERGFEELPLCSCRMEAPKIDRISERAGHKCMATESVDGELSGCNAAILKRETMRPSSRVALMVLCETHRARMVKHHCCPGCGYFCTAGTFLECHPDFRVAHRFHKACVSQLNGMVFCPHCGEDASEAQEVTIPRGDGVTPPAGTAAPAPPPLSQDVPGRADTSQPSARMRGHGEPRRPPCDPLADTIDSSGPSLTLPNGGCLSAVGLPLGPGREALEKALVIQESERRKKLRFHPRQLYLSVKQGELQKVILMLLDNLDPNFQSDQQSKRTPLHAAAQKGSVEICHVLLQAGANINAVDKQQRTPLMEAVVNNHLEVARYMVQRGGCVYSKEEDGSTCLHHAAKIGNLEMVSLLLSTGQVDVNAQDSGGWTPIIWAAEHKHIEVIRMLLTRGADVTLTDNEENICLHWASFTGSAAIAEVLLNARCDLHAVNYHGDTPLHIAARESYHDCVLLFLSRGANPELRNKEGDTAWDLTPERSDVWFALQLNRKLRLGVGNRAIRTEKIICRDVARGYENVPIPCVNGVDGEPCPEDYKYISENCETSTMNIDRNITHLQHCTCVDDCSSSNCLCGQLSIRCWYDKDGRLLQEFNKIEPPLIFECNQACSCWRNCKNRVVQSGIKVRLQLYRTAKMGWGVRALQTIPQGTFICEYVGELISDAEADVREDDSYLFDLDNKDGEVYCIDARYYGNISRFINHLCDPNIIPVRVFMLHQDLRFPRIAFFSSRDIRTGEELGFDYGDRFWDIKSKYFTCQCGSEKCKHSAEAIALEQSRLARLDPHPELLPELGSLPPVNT

[8] = Cmax in Sprague-Dawley rat at 10 mg/kg, po measured upto 24 hrs by LC/MS/MS analysis; type: ADME, organism-based; conditions: in vivo
[9] = AUC (0 to t) in Sprague-Dawley rat at 10 mg/kg, iv measured upto 24 hrs by LC/MS/MS analysis; type: ADME, organism-based; conditions: in vivo
[10] = system: MV4-11; assay: Antiproliferative activity against human MV4-11 cells assessed as inhibition of cell viability measured after 72 hrs by MTT assay; type: functional, cell-based; conditions: MV4-11, 72 h
[11] = Volume of distribution at steady state in Sprague-Dawley rat at 10 mg/kg, iv measured upto 24 hrs by LC/MS/MS analysis; type: ADME, organism-based; conditions: in vivo, read-out: Vdss
[12] = Volume of distribution at steady state in Sprague-Dawley rat at 10 mg/kg, po measured upto 24 hrs by LC/MS/MS analysis; type: ADME, organism-based; conditions: in vivo
[13] = Clearance in Sprague-Dawley rat at 10 mg/kg, iv measured upto 24 hrs by LC/MS/MS analysis; type: ADME, organism-based; conditions: in vivo
[14] = AUC (0 to t) in Sprague-Dawley rat at 10 mg/kg, po measured upto 24 hrs by LC/MS/MS analysis; type: ADME, organism-based; conditions: in vivo
[15] = target: T2, DNA (cytosine-5)-methyltransferase 3A; assay: Inhibition of DNMT3A (unknown origin) at 5 uM preincubated for 15 mins followed by substrate and [3H-SAM] addition and measured after 60 mins by microbeta analysis relative to control; conditions: time 75.0 min
[16] = target: T4, DNA (cytosine-5)-methyltransferase 1 (Homo sapiens, UniProt P26358); assay: Inhibition of DNMT1 (unknown origin) at 5 uM preincubated for 15 mins followed by substrate and [3H-SAM] addition and measured after 60 mins by microbeta analysis relative to control; conditions: time 75.0 min
[17] = Apparent clearance during terminal phase in Sprague-Dawley rat at 10 mg/kg, po measured upto 24 hrs by LC/MS/MS analysis; type: ADME, organism-based; conditions: in vivo, read-out: CLz/F (converted)
[18] = Oral bioavailability in Sprague-Dawley rat at 10 mg/kg measured upto 24 hrs by LC/MS/MS analysis; type: ADME, organism-based; conditions: in vivo
[19] = Antitumor activity against human TMD8 cells harbouring TP53 mutant xenografted in mouse model assessed as body weight change at 12.5 mg/kg, po QD relative to control; type: functional
[20] = Antitumor activity against human TMD8 cells harbouring TP53 mutant xenografted in mouse model assessed as tumor inhibition rate at 12.5 mg/kg, po QD relative to control; type: functional; parameters: scale not given: the % may be the effect or the level left
[21] = Antitumor activity against human TMD8 cells harbouring […] xenografted in mouse model assessed as body weight change at 12.5 mg/kg, po QD relative to control; type: functional
[22] = Antitumor activity against human TMD8 cells harbouring […] xenografted in mouse model assessed as tumor inhibition rate at 12.5 mg/kg, po QD relative to control; type: functional; parameters: scale not given: the % may be the effect or the level left
[23] = target: T4, DNA (cytosine-5)-methyltransferase 1; assay: Inhibition of DNMT1 (unknown origin) at 1 uM preincubated for 15 mins followed by substrate and [3H-SAM] addition and measured after 60 mins by microbeta analysis relative to control; conditions: time 75.0 min
[24] = system: MDA-MB-231; assay: Antiproliferative activity against human MDA-MB-231 cells assessed as inhibition of cell viability measured after 72 hrs by MTT assay; type: functional, cell-based; conditions: MDA-MB-231, 72 h
[25] = system: NCI-H1299; assay: Antiproliferative activity against human NCI-H1299 cells assessed as inhibition of cell viability measured after 72 hrs by MTT assay; type: functional, cell-based; conditions: NCI-H1299, 72 h
[26] = system: THP-1; assay: Antiproliferative activity against human THP-1 cells assessed as inhibition of cell viability measured after 72 hrs by MTT assay; type: functional, cell-based; conditions: THP-1, 72 h
[27] = system: HCT-116; assay: Antiproliferative activity against human HCT-116 cells assessed as inhibition of cell viability measured after 72 hrs by MTT assay; type: functional, cell-based; conditions: HCT-116, 72 h
[28] = system: RPMI-8226; assay: Antiproliferative activity against human RPMI-8226 cells assessed as inhibition of cell viability measured after 72 hrs by MTT assay; type: functional, cell-based; conditions: RPMI-8226, 72 h
[29] = system: MOLM-13; assay: Antiproliferative activity against human MOLM-13 cells assessed as inhibition of cell viability measured after 72 hrs by MTT assay; type: functional, cell-based; conditions: MOLM-13, 72 h
[30] = system: HepG2; assay: Antiproliferative activity against human HepG2 cells assessed as inhibition of cell viability measured after 72 hrs by MTT assay; type: functional, cell-based; conditions: HepG2, 72 h
[31] = system: A549; assay: Antiproliferative activity against human A549 cells assessed as inhibition of cell viability measured after 72 hrs by MTT assay; type: functional, cell-based; conditions: A549, 72 h
[32] = system: HeLa; assay: Antiproliferative activity against human HeLa cells assessed as inhibition of cell viability measured after 72 hrs by MTT assay; type: functional, cell-based
[33] = system: HT-29; assay: Antiproliferative activity against human HT-29 cells assessed as inhibition of cell viability measured after 72 hrs by MTT assay; type: functional, cell-based; conditions: HT-29, 72 h
[34] = target: T5, Histone-lysine N-methyltransferase EHMT2 (Homo sapiens, UniProt Q96KQ7); assay: Inhibition of G9a (unknown origin) preincubated for 15 mins followed by substrate and [3H-SAM] addition and measured after 60 mins by microbeta analysis
T5 sequence (Q96KQ7 whole entry): T3 sequence (whole entry)

[35] = target: T1, DNA (cytosine-5)-methyltransferase 3B; assay: Inhibition of DNMT3B (unknown origin) at 5 uM preincubated for 15 mins followed by substrate and [3H-SAM] addition and measured after 60 mins by microbeta analysis relative to control; conditions: time 75.0 min
[36] = target: T4, DNA (cytosine-5)-methyltransferase 1; assay: Inhibition of DNMT1 (unknown origin) preincubated for 15 mins followed by substrate and [3H-SAM] addition and measured after 60 mins by microbeta analysis

T2 sequence (Q9Y6K1 whole entry, looked up): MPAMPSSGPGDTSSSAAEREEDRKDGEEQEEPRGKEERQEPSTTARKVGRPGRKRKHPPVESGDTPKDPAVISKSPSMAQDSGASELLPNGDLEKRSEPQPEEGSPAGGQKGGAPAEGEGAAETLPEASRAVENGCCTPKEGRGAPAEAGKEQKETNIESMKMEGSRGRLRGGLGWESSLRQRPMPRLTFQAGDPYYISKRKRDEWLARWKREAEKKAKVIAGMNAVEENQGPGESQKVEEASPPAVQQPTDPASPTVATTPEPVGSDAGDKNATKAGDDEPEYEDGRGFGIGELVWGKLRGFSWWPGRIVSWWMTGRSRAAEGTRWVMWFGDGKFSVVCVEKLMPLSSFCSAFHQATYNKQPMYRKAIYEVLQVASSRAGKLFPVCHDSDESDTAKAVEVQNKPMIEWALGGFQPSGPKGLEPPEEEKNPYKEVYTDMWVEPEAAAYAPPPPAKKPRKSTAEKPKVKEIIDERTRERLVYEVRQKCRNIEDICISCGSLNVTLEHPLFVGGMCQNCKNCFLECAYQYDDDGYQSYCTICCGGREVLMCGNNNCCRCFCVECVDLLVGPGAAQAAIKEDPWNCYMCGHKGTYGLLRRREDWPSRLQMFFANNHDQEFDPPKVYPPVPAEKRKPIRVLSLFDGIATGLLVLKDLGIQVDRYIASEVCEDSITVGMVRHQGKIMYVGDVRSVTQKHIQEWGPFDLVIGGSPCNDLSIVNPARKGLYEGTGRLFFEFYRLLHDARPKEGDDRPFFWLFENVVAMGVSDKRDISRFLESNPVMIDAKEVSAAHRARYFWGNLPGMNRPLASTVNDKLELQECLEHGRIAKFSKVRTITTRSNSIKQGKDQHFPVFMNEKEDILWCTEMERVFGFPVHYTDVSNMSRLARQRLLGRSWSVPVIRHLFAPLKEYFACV
T4 sequence (P26358 whole entry): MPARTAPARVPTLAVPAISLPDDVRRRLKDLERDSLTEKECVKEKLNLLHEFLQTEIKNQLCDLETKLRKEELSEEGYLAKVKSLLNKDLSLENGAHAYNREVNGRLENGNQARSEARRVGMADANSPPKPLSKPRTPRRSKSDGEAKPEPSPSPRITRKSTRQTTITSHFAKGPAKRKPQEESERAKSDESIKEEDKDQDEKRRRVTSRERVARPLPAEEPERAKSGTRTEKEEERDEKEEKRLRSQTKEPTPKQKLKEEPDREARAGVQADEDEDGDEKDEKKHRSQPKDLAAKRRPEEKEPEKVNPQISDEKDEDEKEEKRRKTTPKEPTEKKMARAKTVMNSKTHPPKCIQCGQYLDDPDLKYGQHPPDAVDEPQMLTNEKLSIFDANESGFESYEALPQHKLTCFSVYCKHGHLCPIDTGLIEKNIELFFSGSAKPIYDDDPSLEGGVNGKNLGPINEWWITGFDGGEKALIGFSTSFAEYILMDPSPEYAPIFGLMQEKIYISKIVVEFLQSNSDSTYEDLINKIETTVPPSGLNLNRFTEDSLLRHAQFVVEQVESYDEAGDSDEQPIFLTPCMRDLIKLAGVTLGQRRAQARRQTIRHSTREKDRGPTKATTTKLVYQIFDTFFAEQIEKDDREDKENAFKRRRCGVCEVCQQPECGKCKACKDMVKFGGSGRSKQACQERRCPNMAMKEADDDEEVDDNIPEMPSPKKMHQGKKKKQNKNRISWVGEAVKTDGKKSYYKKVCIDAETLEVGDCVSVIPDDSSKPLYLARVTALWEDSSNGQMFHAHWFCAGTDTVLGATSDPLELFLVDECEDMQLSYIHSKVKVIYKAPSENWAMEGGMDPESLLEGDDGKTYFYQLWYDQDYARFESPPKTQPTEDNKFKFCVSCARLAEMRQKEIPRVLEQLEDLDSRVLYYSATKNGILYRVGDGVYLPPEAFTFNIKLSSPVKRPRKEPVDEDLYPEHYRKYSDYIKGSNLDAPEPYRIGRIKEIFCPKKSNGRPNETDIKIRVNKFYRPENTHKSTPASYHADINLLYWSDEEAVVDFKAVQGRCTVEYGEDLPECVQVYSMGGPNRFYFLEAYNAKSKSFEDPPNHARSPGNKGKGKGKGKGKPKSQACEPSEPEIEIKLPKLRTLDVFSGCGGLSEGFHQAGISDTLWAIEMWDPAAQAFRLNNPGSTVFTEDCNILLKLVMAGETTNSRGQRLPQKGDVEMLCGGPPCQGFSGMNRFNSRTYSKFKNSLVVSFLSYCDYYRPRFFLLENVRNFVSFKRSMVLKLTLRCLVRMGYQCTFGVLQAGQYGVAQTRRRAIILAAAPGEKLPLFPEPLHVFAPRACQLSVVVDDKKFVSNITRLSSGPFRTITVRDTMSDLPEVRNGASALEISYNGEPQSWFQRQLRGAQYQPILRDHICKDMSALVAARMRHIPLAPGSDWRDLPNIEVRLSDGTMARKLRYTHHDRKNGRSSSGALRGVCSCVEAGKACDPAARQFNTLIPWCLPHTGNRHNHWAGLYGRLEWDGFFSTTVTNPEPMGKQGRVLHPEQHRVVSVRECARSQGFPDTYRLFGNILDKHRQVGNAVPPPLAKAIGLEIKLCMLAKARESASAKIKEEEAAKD

Structure (SMILES)	Cmax [1]	half-life [2]	half-life [3]	IC50 [4]	IC50 [5]	IC50 [6]	inhibition [7]	Cmax [8]	IC50 [10]	Vd [11]	Vdss [12]	clearance [13]	inhibition [15]	inhibition [16]	CL/F [17]	inhibition [23]	other results
Nc1cc(F)ccc1NC(=O)c1ccc(CNC(=O)/C=C/c2cccnc2)cc1 [TUCIDINOSTAT]																	Activity [19]: -2.3%; Activity [20]: 61%; Activity [21]: 2.5%; Activity [22]: 51.5%
Cc1cc(Nc2ccc(NC(=O)c3ccc(Nc4ccnc5ccccc45)cc3)cc2)nc(N)n1				4.12 µM	1.91 µM				0.98 µM					3.4%		77%	IC50 [24]: 5.39 µM; IC50 [25]: 12.2 µM; IC50 [26]: 2.47 µM; IC50 [27]: 0.82 µM; IC50 [28]: 1.34 µM; IC50 [29]: 1.19 µM; IC50 [30]: 11.6 µM; IC50 [31]: 9.5 µM; IC50 [32]: 21.6 µM; IC50 [33]: 0.49 µM
CN1CCN(c2cc(NCC3CCN(C(=O)NC(C)(C)C)CC3)c3cnn(CCCN4CCOCC4)c3c2)CC1									19.4 µM							0.91%	

Further compounds by falling IC50 [10], results first:

Cmax [1]	half-life [2]	half-life [3]	IC50 [4]	IC50 [5]	IC50 [6]	inhibition [7]	Cmax [8]	IC50 [10]	Vd [11]	Vdss [12]	clearance [13]	inhibition [15]	inhibition [16]	CL/F [17]	inhibition [23]	Structure (SMILES)	other results
								34.5 µM							9.3%	CN1CCN(c2cc(NCC3CCN(C(=O)C4CCC4)CC3)c3cnn(CCCN4CCOCC4)c3c2)CC1	
436 ng/mL	7.8 h	3.5 h	2.61 µM	> 20 µM	3.13 µM	4.2%	17.3 ng/mL	3.87 µM	33.8 L/kg	303.6 L/kg	45 mL/min/kg	6.8%	72%	1050 mL/min/kg		CN1CCC(Nc2nc(-c3ccc(F)nc3)nc3c2ccn3CCCN2CCCC2)CC1	AUC(0-t) at 24 h ([9]; Sprague-Dawley): 2080 ng·h/mL; AUC(0-t) at 24 h ([14]; Sprague-Dawley): 116 ng·h/mL; bioavailability ([18]; Sprague-Dawley): 6.5%
698 ng/mL	12.1 h	12.3 h	1.2 µM	12.4 µM	10.9 µM	-1.3%	29.3 ng/mL	2.05 µM	22.4 L/kg	673.5 L/kg	21.7 mL/min/kg	11%	82%	843 mL/min/kg		CN1CCC(Nc2nc(-c3ccc(C#N)c(F)c3)nc3c2ccn3CCCN2CCCC2)CC1	IC50 [34]: > 20 µM; inhibition [35]: 2.3%; AUCt ([9]; iv, 10 mg/kg, 24 h): 2775.5 ng·h/mL; AUCt ([14]; po, 10 mg/kg, 24 h): 302.6 ng·h/mL; F ([18]; po, 10 mg/kg, 24 h): 5.4%; IC50 [36]: 1.22 µM
